# Measurements reported in US20220296522A1, “BRYOID COMPOSITIONS, METHODS OF MAKING AND USE THEREOF” (Aphios Corporation, priority 2021, published 2022).
# Entries after “also recorded” stand apart in the source; their conditions may differ.
# Key:
# [1] = system: alpha-secretase; assay: alpha-secretase activity in SHSY-5Y neuroblastoma cells (FIG. 10); format: cell-based; conditions: 10−9 M, versus Bryostatin-1
# Description: Purified Bryoids at 10−^9 M are shown to increase alpha-secretase activity in SHSY-5Y neuroblastoma cells in FIG. 10.
# [2] = system: B6C3-Tg (APPswe, PSEN1 dE9) 85Dbo/J mice; assay: Morris water maze in APP/PS1 Alzheimer's disease mice; format: in vivo, mouse
# Protocol: Mouse strain B6C3-Tg carrying mutant Swedish Amyloid precursor protein (sweAPP) and PS I (presenilin-1) genes associated with early onset Alzheimer's disease were subjected to water maze tests at 5-6 months of age.
# In vivo studies were conducted using the Morris water maze to evaluate cognitive impairments and restoration in response to drug treatments. These studies used the mouse strain B6C3-Tg (APPswe, PSEN1 dE9) 85Dbo/J mice (MMRRC, Jackson Labs).
# [3] = system: TS65DN transgenic mouse model of Down syndrome; assay: Morris water maze in TS65DN mouse model of Down syndrome, intranasal; format: in vivo; conditions: PET formulation
# Description: In this model, wild type mice improved over the 4 trials shown as a reduction in latency within the trial.
# TS65DN mouse model of Down syndrome were purchased from MMRRC/Jackson Labs at 20-24 weeks of age and maintained in the LSUHSC-S vivarium. Segmentally trisomic Ts65Dn mice provide a postnatal model for Down syndrome.
# [4] = system: SK-HEP1 liver cells; assay: Metabolism by SK-HEP1 liver cells; format: in vitro ADME; conditions: within 24 h
# [5] = Biodistribution of radio-labeled Bryostatin-1 by different administration routes; format: in vivo, mouse
# Description: It is worth mentioning that oil formulations were used for […] and intraperitoneal studies. Aqueous formulations were used for intravenous administration and PET formulation for intranasal administration.
# [6] = Solubility of Bryostatin-1 in solvents and oils by normal phase HPLC; format: physicochemical; conditions: for Concentration: theoretical 2.5 mg/100 mL
# Protocol: Based on the hydrophobicity of Bryostatin-1, we developed an oil-based formulation of Bryostatin-1. […] Isopropyl alcohol, Extra Virgin olive oil, sesame oil, and vegetable oil were all used as solvents. Thirty microliters of the stock solution were placed in each of 4 clean, dry HPLC vials. The ethanol was allowed to evaporate, leaving 25 micrograms in the vial. Then, 1.0 mL of the solvent was placed in the vial and vortexed to ensure proper mixing. These samples were then injected on a normal phase HPLC system, with a gradient of 10%-70% isopropyl alcohol in hexane as the mobile phase (specifically developed for this experiment). The concentration of each vial theoretically should be 2.5 mg/100 mL.
# The reason for the higher concentrations than the standard (isopropyl alcohol) is due to the baseline. While attempting a baseline subtraction for each oil, there was negative absorbance so the blank IPA sample was subtracted from each sample's baseline. While this incorporates a little more area for integration, the amount of Bryostatin in the oil was quantifiable.
# [7] = over 72 h following intranasal administration
molecule,measurement,setting,value
bryostatin-3 26-ketone [Bryoid B16],alpha-secretase activity,[1],improve the production of alpha-secretase over Bryostatin-1
CCC/C=C/C=C/C(=O)O[C@H]1/C(=C/C(=O)OC)C[C@H]2C[C@H]([C@@H](C)O)OC(=O)C[C@H](O)C[C@@H]3C[C@H](OC(C)=O)C(C)(C)[C@](O)(C[C@@H]4C/C(=C/C(=O)OC)C[C@H](/C=C/C(C)(C)[C@]1(O)O2)O4)O3 [Bryostatin-1],protection against memory loss in water maze,"[2]; 5 micrograms/mouse on alternative days orally in oil formulation, APP/PS1 mice 5-6 months of age, versus control animals",significant protection against Alzheimer's disease mediated memory loss
same,responses in water maze,[2]; i.p. treated mice,did not find that i.p. treated mice showed as good responses
same,inter-trial water maze performance (latency),[3]; 0.01 μg intranasal,did not show this same improvement
same,inter-trial water maze performance (latency),"[3]; 0.1 μg intranasal, p<0.05 compared to vehicle treated Down's mice",inter-trial interval improvement
same,inter-trial water maze performance (latency),"[3]; 1 μg intranasal, p<0.001 compared to vehicle treated transgenic Down's mice",significant improvement
same,metabolism by liver cells,[4],not significantly metabolized
same,tissue distribution of 3H-labeled tracer,"[5]; 8 h following intranasal administration, normalized to CPM/g","most abundant in hippocampus, large intestine and urine"
same,tissue distribution of 3H-labeled tracer,[5]; 12 h following intranasal administration,most abundant in hippocampus and urine
same,tissue distribution of 3H-labeled tracer,[5]; 24 h following intranasal administration,"most abundant in hippocampus, urine and feces"
same,tissue distribution of 3H-labeled tracer,[5]; 48 h following intranasal administration,most abundant in hippocampus and fat tissues
same,accumulation in different tissues,[5]; i.p. dosed group,highest tissue accumulations
same,accumulation in different tissues,[5]; i.v. dosed group,highest tissue accumulations
same,accumulation in hippocampus and lung,"[5]; intranasal delivery, by 4 h",relative high levels of Bryostatin-1 accumulation
same,accumulation in different tissues,[5]; oral route (oil formulation),lowest
same,Hippocampal content,[5]; [7],relatively high hippocampal uptake rates were achieved and maintained; also recorded: slow rate of loss over 72 h
same,Lung content,[5]; [7],a peak at 4 h and rapid excretion by 8 h; also recorded: rapid rate of appearance at 4h followed by rapid loss at 8 h
same,Concentration,[6]; Extra Virgin Olive Oil,2.9945 mg/100 mL
same,Concentration,"[6]; Extra Virgin olive with mixed natural tocopherol antioxidants, lecithin and medium chain triglyceride emulsifiers",2.4431 mg/100 mL
same,Concentration,[6]; Isopropyl Alcohol (standard),2.6035 mg/100 mL
same,Concentration,[6]; Vegetable Oil,2.5475 mg/100 mL
same,solubility in oils,[6]; variety of oils,"soluble in a variety of different types of oil; also recorded: soluble in a variety of oils, with the best results in Extra Virgin Olive Oil, Vegetable Oil, and Extra Virgin Olive Oil with excipients"
"CCC/C=C/C=C/C(=O)O[C@H]1[C@H]2C=C3C[C@H]([C@@H](C)O)OC(=O)C[C@H](O)C[C@@H]4C[C@H](OC(C)=O)C(C)(C)[C@](O)(C[C@@H]5C/C(=C\C(=O)OC)C[C@H](/C=C/C(C)(C)[C@]1(OC(=O)C2)O3)O5)O4 [Bryoid B3, Bryostatin-3]",alpha-secretase activity,[1],improve the production of alpha-secretase over Bryostatin-1
